Data as given in patent US8247211B2, “Glycopeptide antibiotics” (American Cyanamid Company, priority 2001, dated 2012).
≈ marks a conversion by molar mass, not a printed value.

Columns and labels:
Assay in all cases: In vitro antibacterial evaluation: minimum inhibitory concentration (MIC), broth dilution method
Format in all cases: cell-based
Details in all cases: 18 hours at 35° C.
Streptococcus sp. = tested on: Streptococcus sp.
Summary of the method: (§1)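 First, organisms are seeded at 5×10^5 CFU/mL into Muller-Hinton II […]. Next, antibiotic is applied across 64-0.06 μg/mL by broth dilution (NCCLS M7-A2). Finally, the lowest inhibitory concentration is recorded as MIC.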

Enterococcus sp. = tested on: Enterococcus sp.
Summary of the method: as §1

Staphylococcus sp. = tested on: Staphylococcus sp.
Summary of the method: as §1

Escherichia coli = tested on: Escherichia coli
Summary of the method: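 An MIC is reported for each organism as the least concentration giving inhibition, using broth dilution over 64-0.06 μg/mL with a 5×10^5 CFU/mL inoculum.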

[1] = Streptococcus agalactiae (GC 4564)
[2] = Streptococcus pneumoniae (ATCC 6301)
[3] = Streptococcus pneumoniae (GC 1894)
[4] = Streptococcus pneumoniae (GC 4565)
[5] = Streptococcus pyogenes (GC 4563)
[6] = broth dilution, inoculum 5×10^5 CFU/mL
[7] = Enterococcus faecalis (GC 2242)
[8] = Enterococcus faecalis (GC 2691)
[9] = Enterococcus faecalis (GC 3059)

## COc1ccc(COCC2OC(OC3C(CO)OC(Oc4ccc(CC5NC(=O)C(C(C)c6ccccc6)NC(=O)CNC(=O)C(CO)NC(=O)C(C(O)C6CNC(=N)N6C6OC(CO)C(O)C(O)C6O)NC(=O)C(C(O)C6CNC(=N)N6)NC5=O)cc4)C(O)C3O)C(O)C(O)C2O)cc1OCc1ccccc1 (centres unmarked) [Example 239]
Streptococcus sp.; [1]
  MIC Streptococcus agalactiae (GC 4564): 0.25 mg/L (≈ 0.164 µM)
Streptococcus sp.; [2]
  MIC Streptococcus pneumoniae (ATCC 6301): <0.06 mg/L
Streptococcus sp.; [3]
  MIC Streptococcus pneumoniae (GC 1894): <0.06 mg/L
Streptococcus sp.; [4]
  MIC Streptococcus pneumoniae (GC 4565): <0.06 mg/L
Streptococcus sp.; [5]
  MIC Streptococcus pyogenes (GC 4563): 0.25 mg/L (≈ 0.164 µM)
Streptococcus sp.; [6]
  MIC Streptococcus agalactiae (GC 4564): 0.25 mg/L (≈ 0.164 µM)
  MIC Streptococcus pneumoniae (ATCC 6301): <0.06 mg/L
  MIC Streptococcus pneumoniae (GC 1894): <0.06 mg/L
  MIC Streptococcus pneumoniae (GC 4565): <0.06 mg/L
  MIC Streptococcus pyogenes (GC 4563): 0.25 mg/L (≈ 0.164 µM)
Enterococcus sp.
  MIC Enterococcus avium (GC 4558): 4 mg/L (≈ 2.63 µM)
  MIC Enterococcus faecalis (ATCC 29212): 4 mg/L (≈ 2.63 µM)
  MIC Enterococcus faecalis (GC 4552): 4 mg/L (≈ 2.63 µM)
  MIC Enterococcus faecalis (GC 4553): 4 mg/L (≈ 2.63 µM)
  MIC Enterococcus faecalis (GC 4554): 4 mg/L (≈ 2.63 µM)
  MIC Enterococcus faecalis (GC 6189): 4 mg/L (≈ 2.63 µM)
  MIC Enterococcus faecium (GC 2243): 4 mg/L (≈ 2.63 µM)
  MIC Enterococcus faecium (GC 4556): 4 mg/L (≈ 2.63 µM)
  MIC Enterococcus faecium (GC 4557): 2 mg/L (≈ 1.31 µM)
Enterococcus sp.; [7]
  MIC Enterococcus faecalis (GC 2242): 4 mg/L (≈ 2.63 µM)
Enterococcus sp.; [8]
  MIC Enterococcus faecalis (GC 2691): 4 mg/L (≈ 2.63 µM)
Enterococcus sp.; [9]
  MIC Enterococcus faecalis (GC 3059): 4 mg/L (≈ 2.63 µM)
Enterococcus sp.; [6]
  MIC Enterococcus faecalis (GC 2242): 4 mg/L (≈ 2.63 µM)
  MIC Enterococcus faecalis (GC 2691): 4 mg/L (≈ 2.63 µM)
  MIC Enterococcus faecalis (GC 3059): 4 mg/L (≈ 2.63 µM)
Staphylococcus sp.
  MIC Coagulase Negative Staphylococcus (GC 4547): 2 mg/L (≈ 1.31 µM)
  MIC Coagulase Negative Staphylococcus (GC 4548): 1 mg/L (≈ 0.657 µM)
  MIC Coagulase Negative Staphylococcus (GC 4549): 1 mg/L (≈ 0.657 µM)
  MIC Coagulase Negative Staphylococcus (GC 4551): 2 mg/L (≈ 1.31 µM)
  MIC Coagulase Negative Staphylococcus (GC 6257): 1 mg/L (≈ 0.657 µM)
  MIC Staphylococcus aureus (ATCC 29213): 2 mg/L (≈ 1.31 µM)
  MIC Staphylococcus aureus (GC 1131): 2 mg/L (≈ 1.31 µM)
  MIC Staphylococcus aureus (GC 3051): 1 mg/L (≈ 0.657 µM)
  MIC Staphylococcus aureus (GC 3053): 2 mg/L (≈ 1.31 µM)
  MIC Staphylococcus aureus (GC 4541): 4 mg/L (≈ 2.63 µM)
  MIC Staphylococcus aureus (GC 4542): 2 mg/L (≈ 1.31 µM)
  MIC Staphylococcus aureus (GC 4544): 2 mg/L (≈ 1.31 µM)
  MIC Staphylococcus aureus (GC 4545): 2 mg/L (≈ 1.31 µM)
  MIC Staphylococcus aureus-SMITH (GC 4543): 2 mg/L (≈ 1.31 µM)
  MIC Staphylococcus haemolyticus (GC 4546): 1 mg/L (≈ 0.657 µM)
Escherichia coli
  MIC Escherichia coli (ATCC 25922): >64 mg/L
  MIC Escherichia coli (GC 4559): >64 mg/L
  MIC Escherichia coli (GC 4560): 1 mg/L (≈ 0.657 µM)

## COc1ccc(COC2C(CO)OC(OC3C(CO)OC(Oc4ccc(CC5NC(=O)C(C(C)c6ccccc6)NC(=O)CNC(=O)C(CO)NC(=O)C(C(O)C6CNC(=N)N6C6OC(CO)C(O)C(O)C6O)NC(=O)C(C(O)C6CNC(=N)N6)NC5=O)cc4)C(O)C3O)C(O)C2O)cc1OCc1ccccc1 (stereo not drawn) [Example 239a, Cyclo[glycyl-β-methylphenylalanyl-O-[4-O-[4-O-[4-methoxy-3-(phenylmethoxy)benzyl]-hexopyranosyl]hexopyranosyl]tyrosyl-3-(2-iminoimidazolidin-4-yl)seryl-3-(3-hexopyranosyl-2-iminoimidazolidin-4-yl)serylseryl]]
Streptococcus sp.; [1]
  MIC Streptococcus agalactiae (GC 4564): 1 mg/L (≈ 0.657 µM)
Streptococcus sp.; [2]
  MIC Streptococcus pneumoniae (ATCC 6301): 0.25 mg/L (≈ 0.164 µM)
Streptococcus sp.; [3]
  MIC Streptococcus pneumoniae (GC 1894): <0.06 mg/L
Streptococcus sp.; [4]
  MIC Streptococcus pneumoniae (GC 4565): 0.25 mg/L (≈ 0.164 µM)
Streptococcus sp.; [5]
  MIC Streptococcus pyogenes (GC 4563): 2 mg/L (≈ 1.31 µM)
Streptococcus sp.; [6]
  MIC Streptococcus agalactiae (GC 4564): 1 mg/L (≈ 0.657 µM)
  MIC Streptococcus pneumoniae (ATCC 6301): 0.25 mg/L (≈ 0.164 µM)
  MIC Streptococcus pneumoniae (GC 1894): <0.06 mg/L
  MIC Streptococcus pneumoniae (GC 4565): 0.25 mg/L (≈ 0.164 µM)
  MIC Streptococcus pyogenes (GC 4563): 2 mg/L (≈ 1.31 µM)
Enterococcus sp.
  MIC Enterococcus avium (GC 4558): 8 mg/L (≈ 5.26 µM)
  MIC Enterococcus faecalis (ATCC 29212): 8 mg/L (≈ 5.26 µM)
  MIC Enterococcus faecalis (GC 4552): 8 mg/L (≈ 5.26 µM)
  MIC Enterococcus faecalis (GC 4553): 8 mg/L (≈ 5.26 µM)
  MIC Enterococcus faecalis (GC 4554): 16 mg/L (≈ 10.5 µM)
  MIC Enterococcus faecalis (GC 6189): 8 mg/L (≈ 5.26 µM)
  MIC Enterococcus faecium (GC 2243): 8 mg/L (≈ 5.26 µM)
  MIC Enterococcus faecium (GC 4556): 8 mg/L (≈ 5.26 µM)
  MIC Enterococcus faecium (GC 4557): 4 mg/L (≈ 2.63 µM)
Enterococcus sp.; [7]
  MIC Enterococcus faecalis (GC 2242): 8 mg/L (≈ 5.26 µM)
Enterococcus sp.; [8]
  MIC Enterococcus faecalis (GC 2691): 8 mg/L (≈ 5.26 µM)
Enterococcus sp.; [9]
  MIC Enterococcus faecalis (GC 3059): 8 mg/L (≈ 5.26 µM)
Enterococcus sp.; [6]
  MIC Enterococcus faecalis (GC 2242): 8 mg/L (≈ 5.26 µM)
  MIC Enterococcus faecalis (GC 2691): 8 mg/L (≈ 5.26 µM)
  MIC Enterococcus faecalis (GC 3059): 8 mg/L (≈ 5.26 µM)
Staphylococcus sp.
  MIC Coagulase Negative Staphylococcus (GC 4547): 2 mg/L (≈ 1.31 µM)
  MIC Coagulase Negative Staphylococcus (GC 4548): 1 mg/L (≈ 0.657 µM)
  MIC Coagulase Negative Staphylococcus (GC 4549): 2 mg/L (≈ 1.31 µM)
  MIC Coagulase Negative Staphylococcus (GC 4551): 2 mg/L (≈ 1.31 µM)
  MIC Coagulase Negative Staphylococcus (GC 6257): 2 mg/L (≈ 1.31 µM)
  MIC Staphylococcus aureus (ATCC 29213): 4 mg/L (≈ 2.63 µM)
  MIC Staphylococcus aureus (GC 1131): 4 mg/L (≈ 2.63 µM)
  MIC Staphylococcus aureus (GC 3051): 2 mg/L (≈ 1.31 µM)
  MIC Staphylococcus aureus (GC 3053): 4 mg/L (≈ 2.63 µM)
  MIC Staphylococcus aureus (GC 4541): 4 mg/L (≈ 2.63 µM)
  MIC Staphylococcus aureus (GC 4542): 4 mg/L (≈ 2.63 µM)
  MIC Staphylococcus aureus (GC 4544): 4 mg/L (≈ 2.63 µM)
  MIC Staphylococcus aureus (GC 4545): 4 mg/L (≈ 2.63 µM)
  MIC Staphylococcus aureus-SMITH (GC 4543): 2 mg/L (≈ 1.31 µM)
  MIC Staphylococcus haemolyticus (GC 4546): 2 mg/L (≈ 1.31 µM)
Escherichia coli
  MIC Escherichia coli (ATCC 25922): >64 mg/L
  MIC Escherichia coli (GC 4559): >64 mg/L
  MIC Escherichia coli (GC 4560): 2 mg/L (≈ 1.31 µM)
